Source: ChEMBL document CHEMBL3769332, “Affinity-Based Fluorescence Polarization Assay for High-Throughput Screening of Prolyl Hydroxylase 2 Inhibitors” (ACS Med Chem Lett, 2015)

Target: Egl nine homolog 1 (Homo sapiens, UniProt Q9GZT9)
Sequence (Q9GZT9 whole entry): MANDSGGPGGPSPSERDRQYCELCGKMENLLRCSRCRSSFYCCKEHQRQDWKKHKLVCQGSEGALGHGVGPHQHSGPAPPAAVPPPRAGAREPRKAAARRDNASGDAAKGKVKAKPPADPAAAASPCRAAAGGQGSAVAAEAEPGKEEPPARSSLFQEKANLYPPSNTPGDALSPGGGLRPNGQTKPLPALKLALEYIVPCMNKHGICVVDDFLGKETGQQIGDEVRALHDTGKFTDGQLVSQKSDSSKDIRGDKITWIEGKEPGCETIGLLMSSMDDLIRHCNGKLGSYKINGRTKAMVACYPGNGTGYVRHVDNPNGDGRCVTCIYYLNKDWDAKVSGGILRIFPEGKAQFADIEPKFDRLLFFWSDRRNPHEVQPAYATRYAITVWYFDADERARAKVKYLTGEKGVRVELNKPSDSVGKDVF

Row | IC50 | SMILES
1 | 0.876 µM | O=c1c(-n2ccnn2)c[nH]n1-c1cc(N2CCOCC2)ncn1 [MOLIDUSTAT]
2 | 0.89 µM | Cc1ccc(-c2cnc(C(=O)NCC(=O)O)c(O)c2)cc1
